Assay in all cases: growth of human tumour cells (NCI), 48 h
The subject of test [1] is SN12C renal.
Test [2] has as its system ACHN renal.
For test [3], the system named is SR leukemia.
The subject of test [4] is NCI-H23 lung.
In test [5] the test system is UO-31 renal.
In test [6] the test system is SK-MEL-2 melanoma.
For test [7], the system named is SNB-75 CNS.
For test [8], the system named is HCT-116 colon.
In test [9] the test system is SK-MEL-28 melanoma.
Test [10] deals with HOP-92 NSCLC.

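All cell lines were grown in 96-well plates and treated with compound for 48 hours. The concentration for 50% growth inhibition is given as GI50. TGI marks complete inhibition of growth.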 Where a SMILES comes first, the peptide text is derived from it.

With `CNS(=O)(=O)NN(C)S(=O)(=O)c1ccc2ccccc2c1`, the TGI in test [1], in test [2], in [3], in test [4], in test [5] and in test [6] was greater than 100 µM throughout. For the same compound, the TGI in test [7] and in test [8] was greater than 100 µM in each case.
With `CCOC(=O)[C@H]1Nc2ccc([N+](=O)[O-])cc2C2c3ccccc3CC21` (some centres undefined), the TGI in test [1] is 43.2 µM; in [2] it was 72.3 µM; in test [3] it was greater than 100 µM; in test [4] it was 73.6 µM; in test [5], 44 µM; in [9], 31.9 µM. In addition, the figures for the TGI in test [6], in test [7] and in [8] were 72.3 µM, greater than 100 µM and 37.9 µM, respectively.
`Cc1cc(N2CCCC2)nc(NCc2cc(Nc3ccnc4cc(Cl)ccc34)ccc2F)n1`: the GI50 in [2] is 1.53 µM; in [3] it was 0.243 µM; in test [4] it was 1.3 µM; in test [5] it was 1.21 µM; in test [9] it was 1.78 µM; in test [6] it was 1.74 µM. Also, the GI50 is 1.19 µM in [10] and 0.198 µM in test [8]. In addition, the TGI was 3.06 µM in test [2]; 3.63 µM in [4]; 2.66 µM in test [5]; 3.48 µM in test [9]; 3.31 µM in [6]; 2.57 µM in test [10]. The compound further showed a TGI in test [8] of 0.557 µM.
Turning to `O=[n+]1c2ccccc2n([O-])c2cc(Cl)ccc21`, the GI50 in [1] was 3.52 µM; in [2], 2.91 µM; in test [3], 2.19 µM; in [4], 4 µM; in test [5], 3.52 µM; in test [9], 16.4 µM. The figures for the GI50 in [10], in test [7] and in test [8] were 2.14 µM, 3.18 µM and 3.37 µM, respectively. The TGI in test [1] was 14.1 µM; in test [2], 9.95 µM; in test [3], 7.53 µM; in test [4], 25 µM; in test [5], 15 µM; in [9] it was 97.4 µM. Also, the results for the TGI in test [10], in test [7] and in test [8] were 8.29 µM, 15 µM and 12.7 µM, respectively.
`Cc1ccc(NC(=S)SCCC(=O)O)cc1`: the TGI in test [1], in [2], in test [3], in [4], in [5] and in test [9] was greater than 100 µM throughout. The TGI in test [6] and in test [8] was greater than 100 µM throughout.
`COc1ccc(/C=C2\CN(Cc3cn(CCNc4ccnc5cc(Cl)ccc45)nn3)C/C(=C\c3ccc(OC)c(OC)c3)C2=O)cc1OC`: the GI50 in [1] is 2.36 µM; in test [2], 5.25 µM; in test [3], 2.04 µM; in test [4] it was 7.45 µM; in test [5], 14.5 µM; in test [9], 2.29 µM. In addition, the values for the GI50 in test [6], in test [7] and in test [8] were 3.88 µM, 6.67 µM and 1.95 µM, respectively. The TGI in test [1] is 6.79 µM; in test [2], 19.9 µM; in test [3], greater than 100 µM; in test [4], 37.8 µM; in test [5], 31 µM; in [9] it was 5.97 µM. In addition, the TGI is 26.6 µM in [6], 40.7 µM in test [7] and 3.85 µM in test [8].
As to `CCOC(=N)CC(=O)Nc1cccc(Cl)c1`, the TGI in [1], in test [2], in test [3], in test [4], in [5] and in [9] was greater than 100 µM throughout. In addition, the TGI in test [6], in [7] and in test [8] was greater than 100 µM throughout.
In the case of `Cc1cc2nc3cc(C)c(N)cc3[n+](-c3ccccc3)c2cc1N`, the GI50 in test [1] is 1.59 µM; in test [2], greater than 68.2 µM; in [4], 2.77 µM; in [5] it was greater than 100 µM; in test [9], 15.2 µM; in test [6], 6.74 µM. In addition, the figures for the GI50 in [10], in test [7] and in test [8] were 3.88 µM, 2.59 µM and 3.64 µM, respectively. The TGI is greater than 23 µM in test [1]; greater than 100 µM in test [2]; greater than 63.5 µM in test [4]; greater than 100 µM in test [5]; 79.3 µM in [9]; 47.1 µM in test [6]. Further, the TGI in [10] was 27.8 µM; in [7] it was greater than 100 µM; in test [8], 41.4 µM.
For `CN1CCN(Cc2ccc(NC(=O)c3cncc(C#Cc4cncc5nccnc45)c3)cc2C(F)(F)F)CC1`, the GI50 was 1.97 µM in [1]; 1.57 µM in test [2]; 2.98 µM in test [3]; 2.16 µM in [4]; 2.16 µM in [5]; 1.66 µM in test [9]. In addition, the GI50 in [6] is 0.915 µM; in [7], 5.04 µM; in test [8] it was 1.39 µM. Besides, the TGI in [1] was 13.9 µM; in test [2], 6.48 µM; in [3], 28.5 µM; in [4] it was 11 µM; in test [5], greater than 50 µM; in test [9] it was 5.97 µM. The results for the TGI in [6], in test [7] and in [8] were 2.7 µM, 11.5 µM and 7.35 µM, respectively.
As to `COc1cccc2c1C(=O)c1c(O)c3c(c(O)c1C2=O)C[C@@](O)(C(=O)CO)CC3OC1CC(O)C(O)C(C)O1` (some centres undefined), the TGI worked out at 8.19 µM in test [1]; 0.598 µM in test [2]; 0.501 µM in test [4]; 2.41 µM in test [5]; 2.28 µM in test [9]; 1.58 µM in test [6]. The TGI in test [10] was found to be 2.26 µM; in [7] it was 1.08 µM; in test [8] it was 0.572 µM.
On to `CCC(C)C1NC(=O)C2CCCN2C(=O)CNC(=O)C(C)NC(=O)C(Cc2ccccc2)NC(=O)C(C(C)C)NC1=O` (centres undefined) (cyclo(GPIVFA); configuration not given here), for which the TGI in test [1], in [2], in [3], in test [4], in test [5] and in test [9] was greater than 100 µM in each case. Besides, the TGI in [10], in [7] and in [8] was greater than 100 µM each time.
